PubChem BioAssay (NCI)
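Assay format: 96-well plates, 48-hour exposure. TGI marks complete inhibition of growth.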

Legend:
Assay in all cases: inhibition of tumour cell growth, NCI panel, 48 h
HL-60(TB) leukemia = test system: HL-60(TB) leukemia
MDA-N = test system: MDA-N
UO-31 renal = test system: UO-31 renal
ACHN renal = test system: ACHN renal
NCI-H522 lung = test system: NCI-H522 lung
SK-MEL-5 melanoma = test system: SK-MEL-5 melanoma
SN12C renal = test system: SN12C renal
SR leukemia = test system: SR leukemia
A498 renal = test system: A498 renal
EKVX NSCLC = test system: EKVX NSCLC
OVCAR-5 ovarian = test system: OVCAR-5 ovarian
NCI-H460 lung = test system: NCI-H460 lung
MDA-MB-231 breast = test system: MDA-MB-231 breast
RXF 393 renal = test system: RXF 393 renal
T-47D breast = test system: T-47D breast
PC-3 prostate = test system: PC-3 prostate
HOP-92 NSCLC = test system: HOP-92 NSCLC
SF-295 CNS = test system: SF-295 CNS
DU-145 prostate = test system: DU-145 prostate
NCI-H23 lung = test system: NCI-H23 lung
COLO 205 colon = test system: COLO 205 colon
MOLT-4 leukemia = test system: MOLT-4 leukemia
BT-549 breast = test system: BT-549 breast
HT29 colon = test system: HT29 colon
SK-MEL-2 melanoma = test system: SK-MEL-2 melanoma
K-562 leukemia = test system: K-562 leukemia
UACC-257 melanoma = test system: UACC-257 melanoma
KM12 colon = test system: KM12 colon
HS 578T breast = test system: HS 578T breast
HCT-116 colon = test system: HCT-116 colon
MDA-MB-435 = test system: MDA-MB-435
HCT-15 colon = test system: HCT-15 colon
M14 melanoma = test system: M14 melanoma
SK-OV-3 ovarian = test system: SK-OV-3 ovarian
MCF7 breast = test system: MCF7 breast
786-0 renal = test system: 786-0 renal
OVCAR-4 ovarian = test system: OVCAR-4 ovarian
NCI-H226 lung = test system: NCI-H226 lung
A549 NSCLC = test system: A549 NSCLC
UACC-62 melanoma = test system: UACC-62 melanoma
HOP-62 NSCLC = test system: HOP-62 NSCLC
MALME-3M melanoma = test system: MALME-3M melanoma
TK-10 renal = test system: TK-10 renal
SNB-19 CNS = test system: SNB-19 CNS
RPMI-8226 leukemia = test system: RPMI-8226 leukemia
SK-MEL-28 melanoma = test system: SK-MEL-28 melanoma
CAKI-1 renal = test system: CAKI-1 renal
CCRF-CEM leukemia = test system: CCRF-CEM leukemia
IGROV1 ovarian = test system: IGROV1 ovarian
U251 CNS = test system: U251 CNS
OVCAR-8 ovarian = test system: OVCAR-8 ovarian
HCC-2998 colon = test system: HCC-2998 colon
SW-620 colon = test system: SW-620 colon
NCI/ADR-RES ovarian = test system: NCI/ADR-RES ovarian
LOX IMVI melanoma = test system: LOX IMVI melanoma
SF-268 CNS = test system: SF-268 CNS

Measured: TGI

c1ccc2c(c1)Nc1nc3nonc3nc1N2
> 100 µM: all assays above
